Assays:
[1] = system: osteoclast differentiation; assay: Inhibitory effects on osteoclast differentiation (co-culture of bone marrow cells with osteoblast, TRAP staining); type: cell-based, mice; details: co-culture of bone marrow cells and osteoblast, 7 days, TRAP-positive osteoclasts versus controls; for inhibition at 1 µM: Mus musculus, Osteoclast, 168 h, 1 m, read-out: % inhibitory activity on osteoclastogenesis
In short: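 Bone marrow cells from 6–8-week male ddY mice co-cultured with neonatal ICR mouse calvarial osteoblasts in α-MEM/FBS with dexamethasone (10^−7M) and vitamin D3 (10^−8M) for 7 days, compound and medium renewed every 2–3 days. TRAP-positive cells with ≥3 nuclei counted; inhibition given as percent of control.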

[2] = system: cells; assay: Cytotoxicity test (MTT); type: cell-based; details: 10^−6M, 72 hrs, compared with the control group
Experimental: Cytotoxic effect of benzamidine derivatives was evaluated by the experiment described below.
The test substance was diluted in appropriate solvent at 10^−2M concentration. […] Cells to be used in cytotoxitic test were plated on a 96-well microplate in a dose of 1×10^4 cell/100 μL per well and cultured for 72 hrs. 25 μL of MTT [3-(4,5-dimethyl-2-thiazolyl)-2,5-diphenyl-2H-tetrazolium bromide] dissolved in PBS at 2 mg/mL were added before 4 hrs of the end of culture. After reaction, the plates were centrifuged, medium was decanted and 100 μL of DMSO was added to dissolve formazan. Lastly, the absorbance of developed plates was measured at 540 nm.

With `CCCCc1sc(N)nc1-c1ccc(OCCCCCOc2ccc(C(=N)NO)cc2)cc1` [Example 63, N-hydroxy-4-(5-[4-(2-amino-5-butyl-1,3-thiazol-4-yl)phenoxy]pentoxy)-benzamidine] the inhibition at 1 µM [1] was 56.5%, the “Survival rates of the cells” value ([2]; MC3T3-E1 cells) was 52.5% and the “Survival rates of the cells” value ([2]; ST2 cells) was 29.3%.

In the case of `N=C(NO)c1ccc(OCCCCCOc2ccc(-c3nc(N)sc3CC3CCCC3)cc2)cc1` [Example 67, N-hydroxy-4-(5-[4-(2-amino-5-cyclopentylmethyl-1,3-thiazol-4-yl)phenoxy]pentoxy)-benzamidine], the inhibition at 1 µM [1] is reported as 81.4%, the “Survival rates of the cells” value ([2]; MC3T3-E1 cells) is reported as 68.9% and the “Survival rates of the cells” value ([2]; ST2 cells) is reported as 40.0%.

In the case of `CNc1nc(-c2ccc(OCCCCCOc3ccc(C(=N)NO)cc3)cc2)c(C)s1` [Example 86, N-hydroxy-4-(5-[4-(5-methyl-2-methylamino-1,3-thiazol-4-yl)phenoxy]pentoxy)-benzamidine], the inhibition at 1 µM [1] is reported as 52.9%, the “Survival rates of the cells” value ([2]; MC3T3-E1 cells) is reported as 100.0% and the “Survival rates of the cells” value ([2]; ST2 cells) is reported as 48.6%.

`CCNc1nc(-c2ccc(OCCCCCOc3ccc(C(=N)NO)cc3)cc2)c(C)s1` [Example 87, N-hydroxy-4-(5-[4-(2-ethylamino-5-methyl-1,3-thiazol-4-yl)phenoxy]pentoxy)-benzamidine] was tested, and the inhibition at 1 µM [1] was 58.1%, the “Survival rates of the cells” value ([2]; MC3T3-E1 cells) was 97.3% and the “Survival rates of the cells” value ([2]; ST2 cells) was 49.8%.

For `CCCNc1nc(-c2ccc(OC(C)CCCOc3ccc(C(=N)NO)cc3)cc2)c(C)s1` (stereo not drawn) [Example 88, N-hydroxy-4-(4-[4-(5-methyl-2-propylamino-1,3-thiazol-4-yl)phenoxy]pentoxy)-benzamidine], the inhibition at 1 µM [1] was 15.9%, the “Survival rates of the cells” value ([2]; MC3T3-E1 cells) was 94.3% and the “Survival rates of the cells” value ([2]; ST2 cells) was 48.7%.

`Cc1sc(NC(=O)c2ccncc2)nc1-c1ccc(OCCCCCOc2ccc(C(=N)NO)cc2)cc1` [Example 91, N-hydroxy-4-(5-[4-(5-methyl-2-(4-pyridylcarbonyl)amino-1,3-thiazol-4-yl)phenoxy]pentoxy)-benzamidine] was tested, and the inhibition at 1 µM [1] was 92.9%, the “Survival rates of the cells” value ([2]; MC3T3-E1 cells) was 41.3% and the “Survival rates of the cells” value ([2]; ST2 cells) was 20.8%.

For `CCS(=O)(=O)Nc1nc(-c2ccc(OCCCCCOc3ccc(C(=N)NO)cc3)cc2)c(C)s1` [Example 93, N-hydroxy-4-(5-[4-(2-ethanesulfonylamino-5-methyl-1,3-thiazol-4-yl)phenoxy]pentoxy)-benzamidine], the inhibition at 1 µM [1] was 63.7%, the “Survival rates of the cells” value ([2]; MC3T3-E1 cells) was 66.8% and the “Survival rates of the cells” value ([2]; ST2 cells) was 55.0%.

With `CCc1sc(NC)nc1-c1ccc(OCCCCCOc2ccc(C(=N)NO)cc2)cc1` [Example 96, N-hydroxy-4-(5-[4-(5-ethyl-2-methylamino-1,3-thiazol-4-yl)phenoxy]pentoxy)-benzamidine] the inhibition at 1 µM [1] was 64.3%, the “Survival rates of the cells” value ([2]; MC3T3-E1 cells) was 65.1% and the “Survival rates of the cells” value ([2]; ST2 cells) was 27.8%.

`CCCNc1nc(-c2ccc(OCCCCCOc3ccc(C(=N)NO)cc3)cc2)c(CC)s1` [Example 98, N-hydroxy-4-(5-[4-(5-ethyl-2-propylamino-1,3-thiazol-4-yl)phenoxy]pentoxy)-benzamidine] was tested, and the inhibition at 1 µM [1] was 94.7%, the “Survival rates of the cells” value ([2]; MC3T3-E1 cells) was 77.1% and the “Survival rates of the cells” value ([2]; ST2 cells) was 26.9%.

`CCc1sc(NC(=O)c2ccncc2)nc1-c1ccc(OCCCCCOc2ccc(C(=N)NO)cc2)cc1` [Example 100, N-hydroxy-4-(5-[4-(5-ethyl-2-(4-pyridylcarbonyl)amino-1,3-thiazol-4-yl)phenoxy]pentoxy)-benzamidine] was tested, and the inhibition at 1 µM [1] was 63%, the “Survival rates of the cells” value ([2]; MC3T3-E1 cells) was 62.8% and the “Survival rates of the cells” value ([2]; ST2 cells) was 39.1%.

For `CNc1nc(-c2ccc(OCCCCCOc3ccc(C(=N)NO)cc3)cc2)c(Cc2ccccc2)s1` [Example 107, N-hydroxy-4-(5-[4-(5-benzyl-2-methylamino-1,3-thiazol-4-yl)phenoxy]pentoxy)-benzamidine], the inhibition at 1 µM [1] was 53.2%, the “Survival rates of the cells” value ([2]; MC3T3-E1 cells) was 65.2% and the “Survival rates of the cells” value ([2]; ST2 cells) was 43.9%.

With `CNc1nc(-c2ccc(OCCCCCOc3ccc(C(=N)NO)cc3)cc2)c(CC2CCCC2)s1` [Example 109, N-hydroxy-4-(5-[4-(5-cyclopentylmethyl-2-methylamino-1,3-thiazol-4-yl)phenoxy]pentoxy)-benzamidine] the inhibition at 1 µM [1] was 80.5%, the “Survival rates of the cells” value ([2]; MC3T3-E1 cells) was 65.7% and the “Survival rates of the cells” value ([2]; ST2 cells) was 39.0%.

For `N=C(NO)c1ccc(OCCCCCOc2ccc(-c3nc(NC(=O)c4ccncc4)sc3CC3CCCC3)cc2)cc1` [Example 112, N-hydroxy-4-(5-[4-(5-cyclopentylmethyl-2-(4-pyridylcarbonyl)amino-1,3-thiazol-4-yl)phenoxy]pentoxy)-benzamidine], the inhibition at 1 µM [1] was 76.8%, the “Survival rates of the cells” value ([2]; MC3T3-E1 cells) was 86.7% and the “Survival rates of the cells” value ([2]; ST2 cells) was 63.6%.

For `CCS(=O)(=O)N(C)c1nc(-c2ccc(OCCCCCOc3ccc(C(=N)NO)cc3)cc2)cs1` [Example 118, N-hydroxy-4-(5-[4-(2-(ethanesulfonyl-methyl-amino)-1,3-thiazol-4-yl)phenoxy]pentoxy)-benzamidine], the inhibition at 1 µM [1] was 82.9%, the “Survival rates of the cells” value ([2]; MC3T3-E1 cells) was 75.3% and the “Survival rates of the cells” value ([2]; ST2 cells) was 53.2%.

In the case of `CCN(CCO)c1nc(-c2ccc(OCCCCCOc3ccc(C(=N)NO)cc3)cc2)c(C)s1` [Example 121, N-hydroxy-4-(5-[4-(2-(ethyl-(2-hydroxyethyl)-amino)-5-methyl-1,3-thiazol-4-yl)phenoxy]pentoxy)-benzamidine], the inhibition at 1 µM [1] is reported as 69.4%, the “Survival rates of the cells” value ([2]; MC3T3-E1 cells) is reported as 100.0% and the “Survival rates of the cells” value ([2]; ST2 cells) is reported as 41.4%.

In the case of `Cc1sc(N(C)Cc2ccccc2)nc1-c1ccc(OCCCCCOc2ccc(C(=N)NO)cc2)cc1` [Example 125, N-hydroxy-4-(5-[4-(2-(benzyl-methyl-amino)-5-methyl-1,3-thiazol-4-yl)phenoxy]pentoxy)-benzamidine], the inhibition at 1 µM [1] is reported as 73%, the “Survival rates of the cells” value ([2]; MC3T3-E1 cells) is reported as 57.6% and the “Survival rates of the cells” value ([2]; ST2 cells) is reported as 47.9%.

With `CCc1sc(N(CC)CCO)nc1-c1ccc(OCCCCCOc2ccc(C(=N)NO)cc2)cc1` [Example 130, N-hydroxy-4-(5-[4-(5-ethyl-2-(ethyl-(2-hydroxyethyl)-amino)-1,3-thiazol-4-yl)phenoxy]pentoxy)-benzamidine] the inhibition at 1 µM [1] was 55.8%, the “Survival rates of the cells” value ([2]; MC3T3-E1 cells) was 100.0% and the “Survival rates of the cells” value ([2]; ST2 cells) was 37.2%.

`CCc1sc(N(C)Cc2ccccc2)nc1-c1ccc(OCCCCCOc2ccc(C(=N)NO)cc2)cc1` [Example 133, N-hydroxy-4-(5-[4-(2-(benzyl-methyl-amino)-5-ethyl-1,3-thiazol-4-yl)phenoxy]pentoxy)-benzamidine] was tested, and the inhibition at 1 µM [1] was 76.6%, the “Survival rates of the cells” value ([2]; MC3T3-E1 cells) was 62.6% and the “Survival rates of the cells” value ([2]; ST2 cells) was 46.4%.

With `CCc1sc(N(C)Cc2cccnc2)nc1-c1ccc(OCCCCCOc2ccc(C(=N)NO)cc2)cc1` [Example 134, N-hydroxy-4-(5-[4-(5-ethyl-2-(methyl-(pyridin-3-yl-methyl)amino)-1,3-thiazol-4-yl)phenoxy]pentoxy)-benzamidine] the inhibition at 1 µM [1] was 63.7%, the “Survival rates of the cells” value ([2]; MC3T3-E1 cells) was 43.9% and the “Survival rates of the cells” value ([2]; ST2 cells) was 37.4%.

In the case of `CCc1sc(N(CC)Cc2cccnc2)nc1-c1ccc(OCCCCCOc2ccc(C(=N)NO)cc2)cc1` [Example 136, N-hydroxy-4-(5-[4-(5-ethyl-2-(ethyl-(pyridin-3-yl-methyl)amino)-1,3-thiazol-4-yl)phenoxy]pentoxy)-benzamidine], the inhibition at 1 µM [1] is reported as 49.2%, the “Survival rates of the cells” value ([2]; MC3T3-E1 cells) is reported as 48.5% and the “Survival rates of the cells” value ([2]; ST2 cells) is reported as 29.9%.

For `CCc1sc(N(CCO)CCO)nc1-c1ccc(OCCCCCOc2ccc(C(=N)NO)cc2)cc1` [Example 139, N-hydroxy-4-(5-[4-(2-(bis-(2-hydroxyethyl)amino)-5-ethyl-1,3-thiazol-4-yl)phenoxy]pentoxy)-benzamidine], the inhibition at 1 µM [1] was 84.1%, the “Survival rates of the cells” value ([2]; MC3T3-E1 cells) was 77.4% and the “Survival rates of the cells” value ([2]; ST2 cells) was 48.1%.

`CC(C)c1sc(N(C)Cc2cccnc2)nc1-c1ccc(OCCCCCOc2ccc(C(=N)NO)cc2)cc1` [Example 141, N-hydroxy-4-(5-[4-(5-isopropyl-2-(methyl-(pyridin-3-yl-methyl)amino)-1,3-thiazol-4-yl)phenoxy]pentoxy)-benzamidine] was tested, and the inhibition at 1 µM [1] was 74.8%, the “Survival rates of the cells” value ([2]; MC3T3-E1 cells) was 52.8% and the “Survival rates of the cells” value ([2]; ST2 cells) was 27.9%.

In the case of `CCCCc1sc(N(CCC)CCC)nc1-c1ccc(OCCCCCOc2ccc(C(=N)NO)cc2)cc1` [Example 146, N-hydroxy-4-(5-[4-(5-butyl-2-dipropylamino-1,3-thiazol-4-yl)phenoxy]pentoxy)-benzamidine], the inhibition at 1 µM [1] is reported as 94.4%, the “Survival rates of the cells” value ([2]; MC3T3-E1 cells) is reported as 88.4% and the “Survival rates of the cells” value ([2]; ST2 cells) is reported as 38.2%.

In the case of `CN(Cc1cccnc1)c1nc(-c2ccc(OCCCCCOc3ccc(C(=N)NO)cc3)cc2)c(CC2CCCC2)s1` [Example 147, N-hydroxy-4-(5-[4-(5-cyclopentylmethyl-2-(methyl-(pyridin-3-yl-methyl)amino)-1,3-thiazol-4-yl)phenoxy]pentoxy)-benzamidine], the inhibition at 1 µM [1] is reported as 81.1%, the “Survival rates of the cells” value ([2]; MC3T3-E1 cells) is reported as 100.0% and the “Survival rates of the cells” value ([2]; ST2 cells) is reported as 42.4%.

In the case of `CCc1sc(N2CCCCC2)nc1-c1ccc(OCCCCCOc2ccc(C(=N)NO)cc2)cc1` [Example 166, N-hydroxy-4-(5-[4-(5-ethyl-2-piperdino-1,3-thiazol-4-yl)phenoxy]pentoxy)-benzamidine], the “% inhibitory activity on osteoclastogenesis” value [1] is reported as 81.2%, the “Survival rates of the cells” value ([2]; MC3T3-E1 cells) is reported as 71.2% and the “Survival rates of the cells” value ([2]; ST2 cells) is reported as 52.4%.

— US8178688B2, “Benzamidine derivatives, process for the preparation thereof and pharmaceutical composition comprising the same” (Dong Wha Pharmaceutical Co., Ltd., priority 2004, dated 2012)
